Data published in US5244920A, “Pharmaceutical compositions having therapeutical activity based on mercaptoethansulphonic arginine salt” (Schering Spa, priority 1985, dated 1993).

How the values were obtained:
pH in water solution = format: physicochemical; details: 10% aqueous solution
urinary Trp metabolites = experiment: in vivo trial: urinary tryptophan and metabolites in bladder cancer patients (HPLC in reverse phase)
Description: 24 bladder cancer patients were randomized into two groups to receive MESNA-Arginine (per os, 800 mg/daily) or placebo. In both groups 24 hours before and after administration of the drug (MESNA-Arginine, or Placebo), urinary Kynurenine (Ky), Xanthurenic acid (XA), 5-hydroxy-indoleacetic acid (5-HIAA), AA, Trp and 3-OH-AA were determined by HPLC in reverse phase (Rocchini P., Bizzari M., Pompei M; Ciani D., Panicucci M. and Gallo S. Urinary determination of Tryptophan and related metabolites through HPLC in reverse-phase. Rass. Chimi. 1:15-18, 1984.)

solubility in water = format: physicochemical
[1] = background statement; cited from earlier work
[2] = per os, 800 mg/daily, after 24 hours, P-0.001
[3] = per os, 800 mg/daily, after 24 hours, listed as MESNA-Arginine
[4] = per os, 800 mg/daily, after 24 hours, listed as MESNA-arginine

SMILES	pH in 10% water solution (pH in water solution)	cerebral uptake of Trp (urinary Trp metabolites; inferred from rate excretion of 5-HIAA)	urinary tryptophan levels (urinary Trp metabolites; per os, 800 mg/daily, after 24 hours)	reduction of urinary 3-OH-anthranilic acid (urinary Trp metabolites; [2]) [%]	reduction of urinary anthranilic acid (urinary Trp metabolites; [2]) [%]	urinary 5-HIAA (urinary Trp metabolites; [3])	urinary kynurenine (Ky) (urinary Trp metabolites; [3])	urinary xanthurenic acid (XA) (urinary Trp metabolites; [3])	urinary 5-HIAA (urinary Trp metabolites; [4])	urinary kynurenine (Ky) (urinary Trp metabolites; [4])	urinary xanthurenic acid (XA) (urinary Trp metabolites; [4])	solubility in water (solubility in water)	instability of the compound in the free state [1]
O=S(=O)(O)CCS [Example 2, arginine mercaptoethansulphonate]	6.7	no variations	slight reduction	-71	-61	no variation	no variation	no variation	substantial invariance	unchanged	unchanged	perfect	
O=S(=O)(O)CCS [MESNA, mercaptoethansulphonic acid]													high instability
